Test results taken from patent publication US20220000964A1, “Compositions and Methods for Regulating Homeostasis of Chondrocytes, Extracellular Matrix, Articular Cartilage, and Phenotype of Arthritis” (Unigen, Inc., priority 2020, published 2022).

Tests used:
Assay type in all cases: in vivo, rat
[1] = system: CIA rats; test: CIA rats, compression-induced pain (Randall-Salitto)
Protocol: Clinical findings such as arthritis severity index, paw thickness, ankle diameter (using Digital Absolute, Model #PK-0505CPX, Mitutoyo Corporation, Kawasaki, Japan), and pain sensitivity (using Randall Salitto, IITC Life Science Inc., Woodland Hills, Calif., USA) were monitored during the course of study. Urine was collected from overnight fasted rats using metabolic cages after three weeks of treatment post-model induction. At Necropsy, serum from the cardiac and synovial lavage (100 μL of saline was injected into the articular cavity and aspirated back to the syringe) for biomarkers and ankle joint for histopathology were collected from each animal.
Response to pressure as a measure of pain sensitivity was assessed using the Randall-Salitto probe attached to an electronic monitor on priming day, boost day, and days 12, 14, 16, 19, and 21. Both the left and right hind legs were monitored on those days and their average was used for data analysis. Changes from the vehicle-treated CIA rats have been reported as pain tolerance on those days.
Response to pressure as a measure of pain sensitivity was measured using the Randall-Salitto probe attached to an electronic monitor on priming day, boost day, and days 12, 14, 16, 18 and 20. Both the left and right hind legs were monitored on those days and their averages were used for data analysis. Changes from the vehicle-treated CIA rats have been reported as pain tolerance on those days. […] This reduction in pain sensitivity was statistically significant at all time points as of day-12 for both groups when compared to vehicle-treated CIA rats (Table 43).

[2] = system: TNF-α; test: CIA rats, serum TNF-α ELISA; conditions: for TNF-α: serum
Protocol: The presence of catabolic cytokines IL-1β, TNF-α, or IL-6 was measured using Rat IL-1, TNF-α, and IL-6 Quantikine ELISA kit from R and D Systems (product #: RLB00 for IL-1β, RTA00 for TNF-α, and R6000B for IL-6) as follows: diluted serum was added to a microplate coated with polyclonal IL-1, TNF-α, or IL-6 antibody and allowed to bind for 2 h at room temperature. The microplate was washed thoroughly to remove unbound serum and then a polyclonal enzyme-conjugated IL-1β, TNF-α, or IL-6 antibody was added and allowed to bind for 2 h at room temperature. Washing was repeated, enzyme substrate was added, and the plate was developed for 30 min at room temperature. After the addition of stop solution, the absorbance was read at 450 nm, multiplied by dilution factor, and the concentration of IL-1β/TNF-α/IL-6 calculated based on the absorbance readings of an IL-1β/TNF-α/TL-6 standard curve.
The presence of catabolic cytokines IL-6/TNF-α was measured using the Rat IL-6/TNF-α Quantikine ELISA kit from RandD Systems as follows: undiluted serum was added to a microplate coated with polyclonal IL-6/TNF-α antibody and allowed to bind for 2 hours at room temperature. The microplate was washed thoroughly to remove unbound serum, and then a polyclonal enzyme-conjugated IL-6/TNF-α antibody was added and allowed to bind for 2 hours at room temperature. Washing was repeated, enzyme substrate was added, and the plate was developed for 30 minutes at room temperature. After the addition of stop solution, the absorbance was read at 450 nm and the concentration of IL-6/TNF-α calculated based on the absorbance readings of an IL-6/TNF-α standard curve.

[3] = system: MMP-13; test: CIA rats, serum MMP-13 ELISA; conditions: for MMP-13: serum
Protocol: The presence of cartilage degradative enzyme MMP-13 was measured using the Rat Matrix Metallo-Proteinase 13 (MMP-13) ELISA kit from Mybiosource (product #: MBS702112 for MMP-13) as follows: serum was added to a microplate coated with MMP-13 antibody and allowed to bind for 2 h at 37° C. The samples were removed and then a biotin-conjugated MMP-13 antibody was added and allowed to bind for 1 h at 37° C. The microplate was thoroughly washed, and an avidin-conjugated Horse Radish Peroxidase was added and allowed to bind for 1 h at 37° C. Enzyme substrate was then added, and the plate was developed for 30 min at 37° C. After the addition of stop solution, the absorbance was read at 450 nm, multiplied by dilution factor, and the concentration of MMP-13 calculated based on the absorbance readings of an MMP-13 standard curve
The presence of cartilage degradative enzyme MMP-13 was measured using the Rat Matrix Metalloproteinase 13 (MMP-13) ELISA kit from Mybiosource (product #: MBS702112) as follows: undiluted serum was added to a microplate coated with MMP-13 antibody and allowed to bind for 2 hours at 37° C. The samples were removed, and then a biotin-conjugated MMP-13 antibody was added and allowed to bind for 1 hour at 37° C. The microplate was thoroughly washed, and an avidin-conjugated Horse Radish Peroxidase was added and allowed to bind for 1 hour at 37° C. Enzyme substrate was then added, and the plate was developed for 30 minutes at 37° C. After the addition of stop solution, the absorbance was read at 450 nm and the concentration of MMP-13 calculated based on the absorbance readings of an MMP-13 standard curve.

[4] = system: uCTX-II; test: CIA rats, urinary CTX-II ELISA normalized to creatinine
Protocol: The presence of the cartilage degradation biomarker uCTX-II was measured using the Rat CTX-II ELISA kit from Mybiosource (product #: MBS2880519) as follows: diluted urine was added to a microplate coated with CTX-II antibody and allowed to bind for 2 h at 37° C. […] The microplate was washed thoroughly to remove unbound urine and antibody before an enzyme-conjugated avidin antibody was added to bind to the biotin-conjugated antibody for specific detection. The avidin antibody was allowed to bind for 1 h at 37° C. Washing was repeated, enzyme substrate was added, and the plate was developed for 30 min at 37° C. After the addition of stop solution, the absorbance was read at 450 nm, multiplied by dilution factor, and the concentration of CTX-II calculated based on the absorbance readings of a CTX-II standard curve. CTX-II amount was normalized to the amount of Creatinine in the urine using the Creatinine Parameter Assay Kit from R and D Systems (product #: […] Absorbance was read at 492 nm and Creatinine amount in urine was calculated based on the absorbance readings of a Creatinine standard curve.

[5] = system: PIIANP; test: CIA rats, PIIANP ELISA (synovial fluid or serum)
Protocol: The presence of cartilage regeneration/rebuilding biomarker PIIANP was measured using the Rat Procollagen Type IIA N-Prop (PIIANP) ELISA kit from Mybiosource (product #: MBS9399069) as follows: synovial fluid was added to a microplate coated with PIIANP antibody as well as an HRP-conjugated PIIANP antibody and allowed to bind for one hour at 37° C. The microplate was thoroughly washed, and a Chromagen solution was added and allowed to bind for 15 minutes at 37° C. After the addition of stop solution, the absorbance was read at 450 nm and the concentration of PIIANP calculated based on the absorbance readings of a PIIANP standard curve.
The level of cartilage regeneration biomarker PIIANP was measured using the Rat Procollagen Type IIA N-Prop (PIIANP) ELISA kit from Mybiosource (product #: MBS9399069) as follows: undiluted serum was added to a microplate coated with PIIANP antibody as well as an HRP-conjugated PIIANP antibody and allowed to bind for one hour at 37° C. The microplate was thoroughly washed, and a Chromagen solution was added and allowed to bind for 15 minutes at 37° C. After the addition of stop solution, the absorbance was read at 450 nm and the concentration of PIIANP calculated based on the absorbance readings of a PIIANP standard curve.

[6] = system: CIA rats; test: CIA rats, ankle joint histopathology (modified Mankin)
Protocol: For histopathological examination, the ankle joints were kept in 10% formalin for 72 h. The fixed specimens were then decalcified with Calci-Clear Rapid for one and a half days and embedded in paraffin. Standardized 5 μm serial sections were obtained at the medial and lateral section in the sagittal plane of the joint and were stained with hematoxylin and eosin (HE) and Safranin O-fast green to enable evaluation of proteoglycan content. A modified Mankin system (Mankin et al., 1971) was used to score structural and cellular alterations of joint tissues resulting from disease progression and/or treatment efficacy. The histological analysis was conducted at Nationwide Histology and slides were examined by a certified pathologist.
At necropsy, the ankle joint was carefully dissected out, fixed in 10% buffered formalin and sent to Nationwide Histology (Veradale, Wash., USA) for further histopathology analysis. The fixed specimens were then decalcified with Calci-Clear Rapid for one and a half days and embedded in paraffin. Standardized 5 m serial sections were obtained from each rat and stained with hematoxylin and eosin (HE) and Safranin O-fast green to enable evaluation of proteoglycan content. A modified Mankin system (Mankin et al., 1981) was used to score structural and cellular alterations of articular components as indications of disease progression and/or treatment efficacy. The histological analysis was conducted by a certified Pathologist at Nationwide Histology.

[7] = AMK CIA study, MTX 75 μg/kg, AMK 200 mg/kg oral
[8] = AP CIA study, Methotrexate 0.5 mg/kg, AP 200 mg/kg oral
[9] = AP study, MTX (0.5 mg/mL), AP (200 mg/kg) oral 3 weeks
[10] = AMK study, MTX (75 μg/mL), AMK (200 mg/kg)
[11] = AP study, MTX (0.5 mg/mL), AP (200 mg/kg)
[12] = score 0-6, AMK study, MTX (75 μg/mL), AMK (200 mg/kg)
[13] = score, AP study, MTX (0.5 mg/mL), AP (200 mg/kg)

Compound: CN(Cc1cnc2nc(N)nc(N)c2n1)c1ccc(C(=O)N[C@@H](CCC(=O)O)C(=O)O)cc1 [Methotrexate]
- Compression pain resistance vs CIA + vehicle (Mean ± SD) ([1]; Boost, MTX 0.5 mg/kg, AP 200 mg/kg): −1.50%
- Compression pain resistance vs CIA + vehicle (Mean ± SD) ([1]; Day 12, MTX 0.5 mg/kg, AP 200 mg/kg): 8.39%
- Compression pain resistance vs CIA + vehicle (Mean ± SD) ([1]; Day 14, MTX 0.5 mg/kg, AP 200 mg/kg): 27.30%
- Compression pain resistance vs CIA + vehicle (Mean ± SD) ([1]; Day 16, MTX 0.5 mg/kg, AP 200 mg/kg): 54.31%
- Compression pain resistance vs CIA + vehicle (Mean ± SD) ([1]; Day 18, MTX 0.5 mg/kg, AP 200 mg/kg): 64.13%
- Compression pain resistance vs CIA + vehicle (Mean ± SD) ([1]; Day 20, MTX 0.5 mg/kg, AP 200 mg/kg): 69.35%
- Compression pain resistance vs CIA + vehicle (Mean ± SD) ([1]; MTX 75 μg/kg, AMK 200 mg/kg oral, Boost): 0.27 ± 2.16%
- Compression pain resistance vs CIA + vehicle (Mean ± SD) ([1]; MTX 75 μg/kg, AMK 200 mg/kg oral, Day 12): 6.8%
- Compression pain resistance vs CIA + vehicle (Mean ± SD) ([1]; MTX 75 μg/kg, AMK 200 mg/kg oral, Day 12, listed as MTX): 6.75 ± 4.56 %
- Compression pain resistance vs CIA + vehicle (Mean ± SD) ([1]; MTX 75 μg/kg, AMK 200 mg/kg oral, Day 14): 13.5%
- Compression pain resistance vs CIA + vehicle (Mean ± SD) ([1]; MTX 75 μg/kg, AMK 200 mg/kg oral, Day 14, listed as MTX): 13.48 ± 15.98%
- Compression pain resistance vs CIA + vehicle (Mean ± SD) ([1]; MTX 75 μg/kg, AMK 200 mg/kg oral, Day 16): 28.2%
- Compression pain resistance vs CIA + vehicle (Mean ± SD) ([1]; MTX 75 μg/kg, AMK 200 mg/kg oral, Day 16, listed as MTX): 28.18 ± 12.53 %
- Compression pain resistance vs CIA + vehicle (Mean ± SD) ([1]; MTX 75 μg/kg, AMK 200 mg/kg oral, Day 19): 40.8%
- Compression pain resistance vs CIA + vehicle (Mean ± SD) ([1]; MTX 75 μg/kg, AMK 200 mg/kg oral, Day 19, listed as MTX): 40.77%
- Compression pain resistance vs CIA + vehicle (Mean ± SD) ([1]; MTX 75 μg/kg, AMK 200 mg/kg oral, Day 21): 43.9%
- Compression pain resistance vs CIA + vehicle (Mean ± SD) ([1]; MTX 75 μg/kg, AMK 200 mg/kg oral, Day 21, listed as MTX): 43.88 ± 5.97^¥ %
- Compression pain resistance vs CIA + vehicle (Mean ± SD) ([1]; MTX 75 μg/kg, AMK 200 mg/kg oral, Prime): −0.12 ± 1.39%
- Compression pain resistance vs CIA + vehicle (Mean ± SD) ([1]; Prime, MTX 0.5 mg/kg, AP 200 mg/kg): −1.20%
- serum TNF-α inhibition compared to diseased control [2, 7]: 86.2%
- serum TNF-α level vs vehicle-treated CIA [2, 8]: significantly reduced
- TNF-α ([2]; AMK study, AMK (200 mg/kg)): 0.37 ± 1.12 pg/mL
- TNF-α [2, 9]: 10.2 ± 0.37 pg/mL
- serum MMP-13 inhibition compared to vehicle-treated CIA rats [3, 7]: 78.6%
- MMP-13 [3, 10]: 9.67 ± 1.80 pg/mL
- MMP-13 [3, 9]: 86.57 ± 45.31 pg/mL
- inhibition of urine CTX-II (cartilage degradation) vs vehicle-treated CIA [4, 7]: 26.4%
- CTX-II ([4]; urine, CIA rats, MTX 75 μg/mL (printed), AMK 200 mg/kg): 2500.8 ± 355.9 ng/g creatinine
- increase in synovial PIIANP vs vehicle-treated CIA [5, 7]: 69.8%
- increase in serum PIIANP vs CIA + vehicle [5, 8]: 47%
- PIIANP ([5]; serum, AP study, MTX (0.5 mg/mL), AP (200 mg/kg) oral 3 weeks): 6.53 ± 1.4 ng/mL
- PIIANP ([5]; synovial fluid, CIA rats, MTX 75 μg/mL (printed), AMK 200 mg/kg): 0.43 ± 0.16 ng/mg
- Bone Erosion, percent inhibition against vehicle treated disease model [6, 10]: (66.3%)
- Cartilage destruction, percent inhibition against vehicle treated disease model [6, 10]: (32.6%)
- GAG Loss, percent inhibition against vehicle treated disease model [6, 10]: (50.8%)
- Inflammation, percent inhibition against vehicle treated disease model [6, 10]: (36.0%)
- Bone Erosion, percent inhibition against vehicle treated disease model [6, 11]: (100%)
- Cartilage destruction, percent inhibition against vehicle treated disease model [6, 11]: (98.3%)
- GAG Loss, percent inhibition against vehicle treated disease model [6, 11]: (94.5%)
- Inflammation, percent inhibition against vehicle treated disease model [6, 11]: (100%)
- Bone Erosion (Mean ± SE) [6, 12]: 1.13 ± 0.46
- Cartilage destruction (Mean ± SE) [6, 12]: 2.90 ± 0.63
- GAG Loss (Mean ± SE) [6, 12]: 2.04 ± 0.62
- Inflammation (Mean ± SE) [6, 12]: 3.25 ± 1.02
- Bone Erosion (Mean ± SE) [6, 13]: 0.00 ± 0.00
- Cartilage destruction (Mean ± SE) [6, 13]: 0.13 ± 0.05
- GAG Loss (Mean ± SD) [6, 13]: 0.21 ± 0.17
- Inflammation (Mean ± SE) [6, 13]: 0.00 ± 0.00
